Reference: patent US20240270762A1, “PENICILLIN-BINDING PROTEIN INHIBITORS” (priority 2021, published 2024)
Values after ≈ are worked out from the molar mass of the structure shown.

Assays:
[1] = target: T1, PBP3 from Escherichia coli (K-12) (Escherichia coli, UniProt P0AD68); test: Bocillin-FL fluorescence polarization competition binding, E. coli PBP3
T1 construct: made in house
Method in brief: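 Purified PBP was preincubated with inhibitor (E. coli PBP3 1.5 μM, 30 min; P. aeruginosa PBP3 0.75 μM, A. baumannii PBP3 0.2 μM and PBP1a 1 μM, 15 min), then Bocillin-FL (0.1 μM; 0.05 μM for PBP1a) added and FP read up to 60 min. EC50 = 50% loss of bound probe.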

E. coli AG100 = test: microbe, parasite or virus in culture; type: cell-based; conditions: Escherichia coli, AG100, read-out: MIC E. coli AG100
E. coli 901C = test: microbe, parasite or virus in culture; type: cell-based; conditions: Escherichia coli, read-out: MIC E. coli 901C
E. coli D22 = test: microbe, parasite or virus in culture; type: cell-based; conditions: Escherichia coli, D22, read-out: MIC E. coli D22
E. coli AG100A = test: Broth microdilution MIC in CAMHB; type: cell-based; conditions: Escherichia coli, read-out: MIC E. coli AG100A
K. pneumoniae 848844 = test: microbe, parasite or virus in culture; type: cell-based; conditions: Klebsiella pneumoniae, 848844, read-out: MIC K. pneumoniae 848844
K. pneumoniae UMM = test: microbe, parasite or virus in culture; type: cell-based; conditions: Klebsiella pneumoniae, read-out: MIC K. pneumoniae UMM
P. aeruginosa ATCC 35151 = test: microbe, parasite or virus in culture; type: cell-based; conditions: Pseudomonas aeruginosa, ATCC35151, read-out: MIC P. aeruginosa ATCC 35151
[2] = system: N. gonorrhoeae ATCC 49226; test: Liquid broth MIC in Fastidious broth; conditions: Neisseria gonorrhoeae, ATCC49226, read-out: Minimum Inhibitory Concentration (MIC), N. gonorrhoeae ATCC 49226
N. gonorrhoeae MS11 = test: Liquid broth MIC in Fastidious broth; conditions: Neisseria gonorrhoeae, MS11, read-out: Minimum Inhibitory Concentration (MIC), N. gonorrhoeae MS11
N. gonorrhoeae WHO G = test: Liquid broth MIC in Fastidious broth; conditions: Neisseria gonorrhoeae, read-out: Minimum Inhibitory Concentration (MIC), N. gonorrhoeae WHO G
N. gonorrhoeae WHO L = test: Liquid broth MIC in Fastidious broth; conditions: Neisseria gonorrhoeae, read-out: Minimum Inhibitory Concentration (MIC), N. gonorrhoeae WHO L
N. gonorrhoeae WHO M = test: Liquid broth MIC in Fastidious broth; conditions: Neisseria gonorrhoeae, read-out: Minimum Inhibitory Concentration (MIC), N. gonorrhoeae WHO M
Procedure: Liquid broth-based assays were used for antibacterial testing of PBP inhibitors in Neisseria gonorrhoeae. Briefly, cryo-preserved bacterial cultures of clinical strains were streaked for isolation on Chocolate Agar (72 g/L (2×) GC Agar Base (BD #228950) and 2% (2×) Hemoglobin was autoclaved at 121° C. for 20 minutes to sterilize. Once cooled to ˜50° C. the 2×GC Agar Base and 2× Hemoglobin solutions are combined and 1% IsoVitaleX Enrichment (BD #211876) was added to the solution). Strains were incubated at 36° C. and 5% CO2 to allow growth of colonies, 24 hours before inoculum preparation. 2-fold serial dilutions of test compounds were conducted in a 96 well plate with a final volume of 75 μL per well at 2-fold the final desired concentration in Fastidious broth (Remel #R07664). For preparation of assay inoculum, a direct suspension was prepared by aseptically swabbing 10-15 colonies from agar plates into culture tubes containing 2 mL of fresh sterile saline. After the dilution plates were set up, direct suspensions were then diluted in a cuvette containing sterile saline and the optical density was measured at 600 nm. Inocula were diluted such that 75 μL of this culture in Fastidious broth results in a starting bacterial concentration of 5×10^5 CFU/mL when added to the dilution plates. The plates were incubated for ˜24 hours at 36° C. and 5% CO2.

N. gonorrhoeae WHO X = test: Liquid broth MIC in Fastidious broth; conditions: Neisseria gonorrhoeae, read-out: Minimum Inhibitory Concentration (MIC), N. gonorrhoeae WHO X

T1 sequence (P0AD68 1-577): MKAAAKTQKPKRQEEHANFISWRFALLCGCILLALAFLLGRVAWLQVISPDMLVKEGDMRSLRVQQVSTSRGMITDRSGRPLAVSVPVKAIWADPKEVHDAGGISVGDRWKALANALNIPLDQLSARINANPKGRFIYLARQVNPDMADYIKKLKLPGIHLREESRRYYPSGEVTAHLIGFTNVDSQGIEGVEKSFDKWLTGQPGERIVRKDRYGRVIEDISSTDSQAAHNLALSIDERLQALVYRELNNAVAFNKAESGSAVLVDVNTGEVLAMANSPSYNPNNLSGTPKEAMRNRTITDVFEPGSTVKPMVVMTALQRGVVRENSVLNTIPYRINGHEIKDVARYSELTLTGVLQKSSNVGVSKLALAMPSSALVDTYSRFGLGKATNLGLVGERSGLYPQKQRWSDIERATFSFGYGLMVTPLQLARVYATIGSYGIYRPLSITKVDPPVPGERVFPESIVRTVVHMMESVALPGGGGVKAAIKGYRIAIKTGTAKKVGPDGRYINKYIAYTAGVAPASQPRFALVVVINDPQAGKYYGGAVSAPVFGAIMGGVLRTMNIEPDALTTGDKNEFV

NC(=O)c1ccc(C(=O)NC(C(=O)N[C@H]2Cc3cccc(C(=O)O)c3OB2O)c2ccc(P(=O)(O)O)cc2)nc1 (stereo partly drawn) [Example 188, (3R)-3-(2-(5-carbamoylpicolinamido)-2-(4-phosphonophenyl)acetamido)-2-hydroxy-3,4-dihydro-2H-benzo[e][1,2]oxaborinine-8-carboxylic acid]
EC50 [1]: 10 to 50 µM | MIC (E. coli AG100): > 128 µg/mL | MIC (E. coli 901C): < 1 µg/mL | MIC (E. coli D22): 8 to 16 µg/mL (≈ 14.1 to 28.2 µM) | MIC (E. coli AG100A): > 128 µg/mL | MIC (K. pneumoniae 848844): > 128 µg/mL | MIC (K. pneumoniae UMM): > 128 µg/mL | MIC (P. aeruginosa ATCC 35151): 8 to 16 µg/mL (≈ 14.1 to 28.2 µM) | MIC [2]: < 1 µg/mL | MIC (N. gonorrhoeae MS11): < 1 µg/mL | MIC (N. gonorrhoeae WHO G): < 1 µg/mL | MIC (N. gonorrhoeae WHO L): 4 to 8 µg/mL (≈ 7.04 to 14.1 µM) | MIC (N. gonorrhoeae WHO M): < 1 µg/mL | MIC (N. gonorrhoeae WHO X): 4 to 8 µg/mL (≈ 7.04 to 14.1 µM)

O=C(NC(C(=O)N[C@H]1Cc2cccc(C(=O)O)c2OB1O)c1ccc(P(=O)(O)O)cc1)c1ccc(Cl)cn1 (stereo partly drawn) [Example 184, (3R)-3-(2-(5-chloropicolinamido)-2-(4-phosphonophenyl)acetamido)-2-hydroxy-3,4-dihydro-2H-benzo[e][1,2]oxaborinine-8-carboxylic acid]
EC50 [1]: < 10 µM | MIC (E. coli AG100): > 128 µg/mL | MIC (E. coli 901C): < 1 µg/mL | MIC (E. coli D22): 8 to 16 µg/mL (≈ 14.3 to 28.6 µM) | MIC (E. coli AG100A): 32 to 64 µg/mL (≈ 57.2 to 114 µM) | MIC (K. pneumoniae 848844): > 128 µg/mL | MIC (K. pneumoniae UMM): > 128 µg/mL | MIC (P. aeruginosa ATCC 35151): 2 to 4 µg/mL (≈ 3.57 to 7.15 µM) | MIC [2]: < 1 µg/mL | MIC (N. gonorrhoeae MS11): < 1 µg/mL | MIC (N. gonorrhoeae WHO G): < 1 µg/mL | MIC (N. gonorrhoeae WHO L): 4 to 8 µg/mL (≈ 7.15 to 14.3 µM) | MIC (N. gonorrhoeae WHO M): < 1 µg/mL | MIC (N. gonorrhoeae WHO X): 4 to 8 µg/mL (≈ 7.15 to 14.3 µM)

CS(=O)(=O)N1CCC[C@H]1C(=O)N[C@@H](C(=O)N[C@H]1Cc2cccc(C(=O)O)c2OB1O)c1ccc(P(=O)(O)O)cc1 [Example 44, (R)-2-hydroxy-3-((R)-2-((S)-1-(methylsulfonyl)pyrrolidine-2-carboxamido)-2-(4-phosphonophenyl)acetamido)-3,4-dihydro-2H-benzo[e][1,2]oxaborinine-8-carboxylic acid]
EC50 [1]: 10 to 50 µM | MIC (E. coli AG100): > 128 µg/mL | MIC (E. coli 901C): 2 to 4 µg/mL (≈ 3.36 to 6.72 µM) | MIC (E. coli D22): 8 to 16 µg/mL (≈ 13.4 to 26.9 µM) | MIC (E. coli AG100A): 32 to 64 µg/mL (≈ 53.8 to 108 µM) | MIC (K. pneumoniae 848844): > 128 µg/mL | MIC (K. pneumoniae UMM): > 128 µg/mL | MIC (P. aeruginosa ATCC 35151): 2 to 4 µg/mL (≈ 3.36 to 6.72 µM) | MIC [2]: 1 to 2 µg/mL (≈ 1.68 to 3.36 µM) | MIC (N. gonorrhoeae MS11): 1 to 2 µg/mL (≈ 1.68 to 3.36 µM) | MIC (N. gonorrhoeae WHO G): 1 to 2 µg/mL (≈ 1.68 to 3.36 µM) | MIC (N. gonorrhoeae WHO L): 16 to 32 µg/mL (≈ 26.9 to 53.8 µM) | MIC (N. gonorrhoeae WHO M): < 1 µg/mL | MIC (N. gonorrhoeae WHO X): 16 to 32 µg/mL (≈ 26.9 to 53.8 µM)

O=C(O)c1cccc2c1OB(O)[C@@H](NC(=O)C(NC(=O)C1CC1)c1ccc(P(=O)(O)O)cc1)C2 (stereo partly drawn) [Example 30, (3R)-3-(2-(cyclopropanecarboxamido)-2-(4-phosphonophenyl)acetamido)-2-hydroxy-3,4-dihydro-2H-benzo[e][1,2]oxaborinine-8-carboxylic acid]
EC50 [1]: 50 to 250 µM | MIC (E. coli AG100): > 128 µg/mL | MIC (E. coli 901C): 8 to 16 µg/mL (≈ 16.4 to 32.8 µM) | MIC (E. coli D22): 8 to 16 µg/mL (≈ 16.4 to 32.8 µM) | MIC (E. coli AG100A): > 128 µg/mL | MIC (K. pneumoniae 848844): > 128 µg/mL | MIC (K. pneumoniae UMM): > 128 µg/mL | MIC (P. aeruginosa ATCC 35151): 8 to 16 µg/mL (≈ 16.4 to 32.8 µM) | MIC [2]: 16 to 32 µg/mL (≈ 32.8 to 65.5 µM) | MIC (N. gonorrhoeae MS11): 16 to 32 µg/mL (≈ 32.8 to 65.5 µM) | MIC (N. gonorrhoeae WHO G): 4 to 8 µg/mL (≈ 8.19 to 16.4 µM) | MIC (N. gonorrhoeae WHO L): 16 to 32 µg/mL (≈ 32.8 to 65.5 µM) | MIC (N. gonorrhoeae WHO M): 4 to 8 µg/mL (≈ 8.19 to 16.4 µM) | MIC (N. gonorrhoeae WHO X): 16 to 32 µg/mL (≈ 32.8 to 65.5 µM)
